The values that follow come from US20180020662A1, “Substituted 1-cycloalkyl-2-oxotetrahydroquinolin-6-ylsulfonamides or salts thereof and use thereof to increase stress tolerance in plants” (BAYER CROPSCIENCE AKTIENGESELLSCHAFT, priority 2015, published 2018).

This assay has as its system Triticum aestivum. Briefly: Drought stress test on potted crop plants, spray application, visual scoring against stressed control plants. The class given is in vivo. Also on record: key: 0: no positive effect; +: slight positive effect; ++: clear positive effect; +++: strong positive effect. To be noted: mean of at least three repeats. The method, then: Seeds of monocotyledonous and dicotyledonous crop plants were sown in sandy loam in plastic pots, covered with soil or sand and cultivated in a greenhouse under good growth conditions. The test plants are treated at the early leaf stage (BBCH10-BBCH13). To assure uniform water supply before commencement of stress, the potted plants were supplied with water by dam irrigation prior to substance application. The inventive compounds were first formulated as wettable powders (WP) or dissolved in a solvent mixture. The further dilution was effected with water supplemented with 0.2% wetting agent (e.g. agrotin). The finished spray liquor was sprayed onto the green parts of the plant at an equivalent water application rate of 600 I/ha. Substance application was followed immediately by stress treatment of the plants. Drought stress was induced by gradual drying out under the following conditions: “Day”: 14 hours with illumination at […]. “Night”: 10 hours without illumination at […]. The duration of the respective stress phases was guided mainly by the condition of the stressed control plants. It was ended (by re-irrigating and transfer to a greenhouse with good growth conditions) as soon as irreversible damage was observed on the stressed control plants. The end of the stress phase was followed by an about 4-7-day recovery phase, during which the plants were once again kept under good growth conditions in a greenhouse. The duration of the recovery phase was guided mainly by when the trial plants had attained a state which enabled visual scoring of potential effects, and was therefore variable. Once this juncture had been reached, the appearance of the plants treated with test substances was recorded in comparison to the stressed control plants by the following categories: • 0 no positive effect • + slight positive effect • ++ clear positive effect • +++ strong positive effect In order to rule out any influence on the effects observed by any fungicidal or insecticidal action of the test compounds, it was additionally ensured that the tests proceeded without fungal infection or insect infestation. The values reported in tables A-1 and A-2 below are mean values of the results from at least three repeats. Effects of selected compounds of the general formula (I) under drought stress according to the following tables A-1 and A-2: In the above tables: BRSNS =Brassica napus TRZAS =Triticum aestivum

With `CC1(N2C(=O)CCc3cc(NS(=O)(=O)c4ccc(C#N)cc4)ccc32)CC1` [A1-45], the “Effect (TRZAS)” value (dosage 25 g/ha) is given as “+”. In the case of `N#Cc1ccc(S(=O)(=O)Nc2ccc3c(c2)CCC(=O)N3C23CC(C2)C3)cc1` [A30-45], the “Effect (TRZAS)” value (dosage 250 g/ha) is reported as “+”. Still for that read-out and setting: under `CC1CCC1N1C(=O)CCc2cc(NS(=O)(=O)c3ccc(C#N)cc3)ccc21` (stereo not shown) [A38-45] stands “+”; under `N#Cc1ccc(S(=O)(=O)Nc2ccc3c(c2)CCC(=O)N3C2CC(F)(F)C2)cc1` [A39-45], “++”.
